Laboratory results published in the supplement of paper PMC11003180.

How the values were obtained:
Assay in all cases: drug sensitivity score (DSS) from 5-dose viability curve (DSS (area-based score, 0 = no response)); higher = more sensitive (stronger viability inhibition); extreme values may be limits of the assay
[1] = system: MDCK wild-type + doxycycline; settings: doxycycline: 10 ng/mL; 72 h
Outline: (§1)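 Pre-spotted 384-well plates held 528 oncology drugs, each at five doses from 1 to 10,000 nM. Parental and doxycycline-inducible MDCK cells, exposed beforehand to 10 ng/mL doxycycline in the medium, were added at 2000 cells/well and incubated 72 h at 37 °C. Viability came from CellTiter-Glo luminescence normalized per plate to vehicle and positive controls, and the Breeze pipeline fitted dose-response curves to give drug sensitivity scores.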

[2] = system: MDCK p60AmotL2-inducible + doxycycline (p60AmotL2 expressing); settings: doxycycline: 10 ng/mL; 72 h
Outline: as §1

[3] = system: MDCK wild-type - doxycycline; settings: doxycycline: none; 72 h
Outline: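 Drug sensitivity scores came from Breeze pipeline dose-response fits of CellTiter-Glo luminescence, scaled per plate between vehicle and positive controls. The assay used parental MDCK cells without doxycycline at 2000 cells/well, exposed for 72 h to 528 oncology drugs at five doses (1-10,000 nM).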

For `O=C(Nc1cc(Oc2cc(F)c(NC(=O)C3(C(=O)Nc4ccc(F)cc4)CC3)cc2F)ccn1)C1CC1` [Altiratinib], the drug sensitivity score [1] was 0, the drug sensitivity score [2] was 8 and the drug sensitivity score [3] was 0.
Compound `COc1cc2ncnc(Oc3cccc(NC(=O)Nc4cc(C(C)(C)C(F)(F)F)on4)c3)c2cc1OC` has a drug sensitivity score [1] of 0, a drug sensitivity score [2] of 0 and a drug sensitivity score [3] of 0.
`FC(F)c1nc2ccccc2n1-c1nc(N2CCOCC2)nc(N2CCOCC2)n1` [ZSTK474] showed a drug sensitivity score [1] of 7.2, a drug sensitivity score [2] of 10.3 and a drug sensitivity score [3] of 4.7.
`O=C(c1ccc(C(=O)N2CCC(N3CCCC3)CC2)c(Nc2ccccc2)c1)N1CCC(N2CCCC2)CC1` [UNC1215] was tested, and the drug sensitivity score [1] was 0, the drug sensitivity score [2] was 0 and the drug sensitivity score [3] was 0.
`Cc1c2oc3c(C)ccc(C(=O)N[C@@H]4C(=O)N[C@H](C(C)C)C(=O)N5CCC[C@H]5C(=O)N(C)CC(=O)N(C)[C@@H](C(C)C)C(=O)O[C@@H]4C)c3nc-2c(C(=O)N[C@@H]2C(=O)N[C@H](C(C)C)C(=O)N3CCC[C@H]3C(=O)N(C)CC(=O)N(C)[C@@H](C(C)C)C(=O)O[C@@H]2C)c(N)c1=O` [Dactinomycin] was tested, and the drug sensitivity score [1] was 27.6, the drug sensitivity score [2] was 32.9 and the drug sensitivity score [3] was 25.2.
In the case of `Nc1ncnc2c1nc(N)n2[C@@H]1O[C@H](CO)[C@@H](O)[C@H]1O` [8-amino-adenosine], the drug sensitivity score [1] was 18.2, the drug sensitivity score [2] was 19.8 and the drug sensitivity score [3] was 18.2.
For `Cc1ccc(=O)n(-c2ccccc2)c1` [Pirfenidone], the drug sensitivity score [1] was 0, the drug sensitivity score [2] was 0 and the drug sensitivity score [3] was 0.
In the case of `CNC(=O)c1cccc2cc(Oc3ccnc4cc(OCC5(N)CC5)c(OC)cc34)ccc12` [Lucitanib], the drug sensitivity score [1] was 0.7, the drug sensitivity score [2] was 2.6 and the drug sensitivity score [3] was 0.
Compound `Nc1cc(F)ccc1NC(=O)c1ccc(CNC(=O)/C=C/c2cccnc2)cc1` [Tucidinostat] has a drug sensitivity score [1] of 2.4, a drug sensitivity score [2] of 2.6 and a drug sensitivity score [3] of 0.8.
Compound `Cc1cc(-c2nc(-c3ccc(OC(F)(F)F)cc3)no2)nn1Cc1ccnc(N2CCN(C3CC3)CC2)c1` [BAY 87-2243] has a drug sensitivity score [1] of 0, a drug sensitivity score [2] of 0 and a drug sensitivity score [3] of 0.
In the case of `Cc1cc(Nc2cc(CN3CCOCC3)c3nc(C)c(Cc4ccc(Cl)cc4F)n3n2)n[nH]1` [Gandotinib], the drug sensitivity score [1] was 5.5, the drug sensitivity score [2] was 8.2 and the drug sensitivity score [3] was 6.3.
`CC[C@H](C)C(=O)O[C@H]1C[C@H](O)C=C2C=C[C@H](C)[C@H](CC[C@@H](O)C[C@@H](O)CC(=O)O)[C@H]21` [Pravastatin] was tested, and the drug sensitivity score [1] was 0, the drug sensitivity score [2] was 0 and the drug sensitivity score [3] was 0.
With `CC(C)n1cnc2c(NCCc3ccc(O)cc3)nc(-c3csc4ccccc34)nc21` [StemRegenin 1] the drug sensitivity score [1] was 0.9, the drug sensitivity score [2] was 1.5 and the drug sensitivity score [3] was 2.
Compound `O=S(=O)(c1cccc2c(O)nccc12)N1CCCNCC1` [Hydroxyfasudil] has a drug sensitivity score [1] of 0, a drug sensitivity score [2] of 0 and a drug sensitivity score [3] of 0.
Compound `Cc1nc(C(=O)NCC(=O)O)c(O)c2ccc(Oc3ccccc3)cc12` [Roxadustat] has a drug sensitivity score [1] of 0, a drug sensitivity score [2] of 0 and a drug sensitivity score [3] of 0.
In the case of `N#Cc1ccc(COC[C@H]2O[C@@H](n3c(NCc4ccc(Cl)c(Cl)c4)nc4c(N)ncnc43)[C@H](O)[C@@H]2O)cc1`, the drug sensitivity score [1] was 0, the drug sensitivity score [2] was 0 and the drug sensitivity score [3] was 0.
In the case of `CCn1cc(-c2ccnc3[nH]c(-c4cccc(CN(C)C)c4)cc23)c(-c2ccc(NC(=O)N(C)C)cc2)n1`, the drug sensitivity score [1] was 1.9, the drug sensitivity score [2] was 7.1 and the drug sensitivity score [3] was 0.4.
Work on `Cc1sc2c(c1C)C(c1ccc(Cl)cc1)=N[C@@H](CC(=O)NCCCCNC(=O)COc1cccc3c1C(=O)N(C1CCC(=O)NC1=O)C3=O)c1nnc(C)n1-2` (some centres not stated) [dBET1] yielded a drug sensitivity score [1] of 8, a drug sensitivity score [2] of 9.3 and a drug sensitivity score [3] of 9.5.
Work on `NC(=O)N1CCC(CC(=O)N2CCC([C@H]3c4ncc(Br)cc4CCc4cc(Cl)cc(Br)c43)CC2)CC1` [Lonafarnib] yielded a drug sensitivity score [1] of 9.9, a drug sensitivity score [2] of 14.6 and a drug sensitivity score [3] of 8.6.
Work on `CN(Cc1cnc2nc(N)nc(N)c2n1)c1ccc(C(=O)N[C@@H](CCC(=O)O)C(=O)O)cc1` [Methotrexate] yielded a drug sensitivity score [1] of 25.8, a drug sensitivity score [2] of 22.5 and a drug sensitivity score [3] of 27.
With `CCCCNc1ncc(C(=O)NCc2ccc(-n3ccnc3)cc2)c(NC2CCC(O)CC2)n1` (configuration not stated) [UNC2881] the drug sensitivity score [1] was 0, the drug sensitivity score [2] was 1.9 and the drug sensitivity score [3] was 0.
`CO[C@@H](C)Cn1c(=O)n(C)c2cnc3ccc(-c4cncc(C(C)(C)O)c4)cc3c21` gave a drug sensitivity score [1] of 9.1, a drug sensitivity score [2] of 12.8 and a drug sensitivity score [3] of 8.2.
`N#CCNC(=O)c1ccc(-c2ccnc(Nc3ccc(N4CCOCC4)cc3)n2)cc1` [Momelotinib] was tested, and the drug sensitivity score [1] was 2.7, the drug sensitivity score [2] was 3.3 and the drug sensitivity score [3] was 3.7.
For `Cn1ncnc1[C@H]1c2n[nH]c(=O)c3cc(F)cc(c23)N[C@@H]1c1ccc(F)cc1` [Talazoparib], the drug sensitivity score [1] was 0, the drug sensitivity score [2] was 2.3 and the drug sensitivity score [3] was 0.
With `O=C(Nc1cnn2ccc(N3CCC[C@@H]3c3cc(F)ccc3F)nc12)N1CC[C@H](O)C1` [Larotrectinib] the drug sensitivity score [1] was 0, the drug sensitivity score [2] was 0 and the drug sensitivity score [3] was 0.
With `Cc1cnc(Nc2ccc(OCCN3CCCC3)cc2)nc1Nc1cccc(S(=O)(=O)NC(C)(C)C)c1` [Fedratinib] the drug sensitivity score [1] was 5.7, the drug sensitivity score [2] was 6.9 and the drug sensitivity score [3] was 6.
Compound `C=CC(=O)N1CCC[C@@H](n2nc(-c3ccc(Oc4ccccc4)cc3)c3c(N)ncnc32)C1` [Ibrutinib] has a drug sensitivity score [1] of 3.8, a drug sensitivity score [2] of 9.7 and a drug sensitivity score [3] of 4.5.
In the case of `CN1CCN(CCOc2cc(OC3CCOCC3)c3c(Nc4c(Cl)ccc5c4OCO5)ncnc3c2)CC1` [Saracatinib], the drug sensitivity score [1] was 12.6, the drug sensitivity score [2] was 19.5 and the drug sensitivity score [3] was 12.6.
`Cc1ccc(F)c(NC(=O)Nc2ccc(-c3cccc4[nH]nc(N)c34)cc2)c1` [Linifanib] was tested, and the drug sensitivity score [1] was 0, the drug sensitivity score [2] was 0 and the drug sensitivity score [3] was 0.
`FC(F)(F)c1ccc(CNc2ccc(Cc3c[nH]c4ncc(Cl)cc34)cn2)cn1` [Pexidartinib] was tested, and the drug sensitivity score [1] was 0, the drug sensitivity score [2] was 0.1 and the drug sensitivity score [3] was 0.
Compound `COc1cc(NS(C)(=O)=O)ccc1Nc1c2ccccc2nc2ccccc12` [Amsacrine] has a drug sensitivity score [1] of 8.8, a drug sensitivity score [2] of 15.3 and a drug sensitivity score [3] of 7.6.
Work on `O=C(NC1CCNCC1)c1n[nH]cc1NC(=O)c1c(Cl)cccc1Cl` [AT7519] yielded a drug sensitivity score [1] of 8.9, a drug sensitivity score [2] of 9.1 and a drug sensitivity score [3] of 8.2.
Compound `CCOc1cc2ncc(C#N)c(Nc3ccc(OCc4ccccn4)c(Cl)c3)c2cc1NC(=O)/C=C/CN(C)C` [Neratinib] has a drug sensitivity score [1] of 7.5, a drug sensitivity score [2] of 16.8 and a drug sensitivity score [3] of 5.1.
`O=C(O)C(=O)O.[NH-][C@@H]1CCCC[C@H]1[NH-].[Pt+2]` [Oxaliplatin] was tested, and the drug sensitivity score [1] was 10.2, the drug sensitivity score [2] was 12.3 and the drug sensitivity score [3] was 8.1.
`CN(C)Cc1c(C(=O)NCCOc2ccc(C(=O)NO)cc2)oc2ccccc12` [Abexinostat] gave a drug sensitivity score [1] of 17.5, a drug sensitivity score [2] of 18.8 and a drug sensitivity score [3] of 15.6.
Compound `COc1cc2c(cc1-c1c(C)noc1C)ncc1[nH]c(=O)n([C@H](C)c3ccccn3)c12` [I-BET151] has a drug sensitivity score [1] of 4.6, a drug sensitivity score [2] of 10.9 and a drug sensitivity score [3] of 0.6.
Compound `O=C(O)CC1CC(c2ccccc2)=NO1` (configuration not stated) [VGX-1027] has a drug sensitivity score [1] of 0, a drug sensitivity score [2] of 0 and a drug sensitivity score [3] of 0.
`CC#CC(=O)N1CC[C@@H](n2c(=O)n(-c3ccc(Oc4ccccc4)cc3)c3c(N)ncnc32)C1` [Tirabrutinib] showed a drug sensitivity score [1] of 0.8, a drug sensitivity score [2] of 4 and a drug sensitivity score [3] of 0.
Work on `O=C(c1ccc(F)c(F)c1Nc1ccc(I)cc1F)N1CC(O)([C@@H]2CCCCN2)C1` [Cobimetinib] yielded a drug sensitivity score [1] of 3.4, a drug sensitivity score [2] of 9.8 and a drug sensitivity score [3] of 3.9.
In the case of `CC(C)(C)c1nc(-c2cccc(NS(=O)(=O)c3c(F)cccc3F)c2F)c(-c2ccnc(N)n2)s1` [Dabrafenib], the drug sensitivity score [1] was 0, the drug sensitivity score [2] was 0 and the drug sensitivity score [3] was 0.
With `NS(=O)(=O)NCCNc1nonc1/C(=N/O)Nc1ccc(F)c(Br)c1` [Epacadostat] the drug sensitivity score [1] was 0, the drug sensitivity score [2] was 0 and the drug sensitivity score [3] was 0.
`C[C@@H](C(=O)O)c1ccc(-c2ccccc2)c(F)c1` [Tarenflurbil] showed a drug sensitivity score [1] of 0, a drug sensitivity score [2] of 0 and a drug sensitivity score [3] of 0.
In the case of `CC[C@H](Nc1ncnc2[nH]cnc12)c1nc2cccc(F)c2c(=O)n1-c1ccccc1` [Idelalisib], the drug sensitivity score [1] was 0, the drug sensitivity score [2] was 0.7 and the drug sensitivity score [3] was 0.
Compound `CC(C)C[C@@H](C(=O)N[C@H](C(=O)OC1CCCC1)c1ccccc1)[C@H](O)C(=O)NO` [Tosedostat] has a drug sensitivity score [1] of 1.7, a drug sensitivity score [2] of 2.5 and a drug sensitivity score [3] of 1.4.
